# Source: patent US7485651B2, “Compounds with activity on muscarinic receptors” (Acadia Pharmaceuticals, Inc., priority 1998, dated 2009)
# Assays:
# [1] = molecular target: T1, α-adrenergic receptor subtype 2C (Homo sapiens, UniProt P18825); experiment: Test against other receptors: α-adrenergic 2C; type: cell-based
# T1 sequence (P18825 1-462): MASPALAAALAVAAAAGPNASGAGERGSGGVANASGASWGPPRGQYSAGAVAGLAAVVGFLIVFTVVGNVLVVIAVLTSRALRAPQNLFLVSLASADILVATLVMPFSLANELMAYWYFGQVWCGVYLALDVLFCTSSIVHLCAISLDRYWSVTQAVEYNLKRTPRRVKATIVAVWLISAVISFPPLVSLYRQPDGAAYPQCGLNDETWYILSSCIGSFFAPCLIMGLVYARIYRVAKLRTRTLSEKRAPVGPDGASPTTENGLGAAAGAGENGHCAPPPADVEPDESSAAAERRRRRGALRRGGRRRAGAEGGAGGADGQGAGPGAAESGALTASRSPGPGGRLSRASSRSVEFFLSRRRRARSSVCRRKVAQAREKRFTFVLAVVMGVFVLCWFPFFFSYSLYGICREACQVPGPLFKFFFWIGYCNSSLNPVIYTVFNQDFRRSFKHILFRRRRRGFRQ
# [2] = molecular target: T2, m4 receptor (Homo sapiens, UniProt P08173); experiment: NIH 3T3 cells transfected with m4 muscarinic receptor and Gq-i5; type: cell-based
# T2 construct: expressed in transfected cells; host or cells: NIH 3T3 (ATCC CRL 1658)
# T2 sequence (P08173 1-479): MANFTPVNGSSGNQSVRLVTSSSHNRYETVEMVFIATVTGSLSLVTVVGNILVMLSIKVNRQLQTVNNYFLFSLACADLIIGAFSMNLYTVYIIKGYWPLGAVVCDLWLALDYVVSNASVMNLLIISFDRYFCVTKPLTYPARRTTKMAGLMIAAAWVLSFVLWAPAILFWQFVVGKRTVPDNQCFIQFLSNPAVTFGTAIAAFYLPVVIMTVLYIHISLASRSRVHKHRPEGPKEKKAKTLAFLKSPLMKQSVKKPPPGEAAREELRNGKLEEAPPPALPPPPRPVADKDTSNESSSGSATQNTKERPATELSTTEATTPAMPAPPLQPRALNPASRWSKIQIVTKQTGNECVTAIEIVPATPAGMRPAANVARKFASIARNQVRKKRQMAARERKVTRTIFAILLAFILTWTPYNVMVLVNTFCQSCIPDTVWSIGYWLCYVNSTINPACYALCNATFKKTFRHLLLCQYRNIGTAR
# Procedure: Transfection of cells with muscarinic receptor DNAs (general procedure) NIH 3T3 cells (available from the American Type Culture Collection as ATCC CRL 1658) were grown at 37° C. in a humidified atmosphere (5% CO2) incubator in Dulbecco's modified Eagle's medium (DMEM) supplemented with 4.5 g/l glucose, 4 mM glutamine, 50 units/m1 penicillin, 50 units/m1 streptomycin (available from Advanced Biotechnologies, Inc., Gaithersburg, Md.) and 10% calf serum (available from Sigma, St. Louis, […].). The cells were treated with trypsin-EDTA, spun down and plated at 2×10^6 per 15 cm dish in 20 m1 of DMEM containing 10% calf serum.
# The m1-m5 muscarinic receptor subtypes were cloned substantially as described by Bonner et al., Science 237, 1987, p. 527, and Bonner et al., Neuron 1, 1988, p. 403. For the m2 and m4 receptors, the cells were co-transfected with DNA encoding a chimera between the Gq protein and the five carboxy-terminal amino acids of the Gi protein (the Gq-i5 construct is described by Conklin et al., Nature 363, 1993, p.274).
# On day one, the cells were transfected using the Superfect transfection reagent (available from Qiagen, Valencia, Calif.) in accordance with the manufacturer's instructions. […]
smiles,measurement,setting,value
"CCCCC1CCN(CCCC(=O)c2ccccc2C)CC1 [Compound A, 4-n-Butyl-1-[4-(2-methylphenyl)-4-oxo-1-butyl]piperidine]",agonist activity,[1],no significant activity
same,inhibition of receptor responses (antagonist experiments),[1],did not inhibit
same,antagonism of carbachol-induced responses,[2],not an antagonist
